Read-outs that look alike come from different tables or passages of the source.
Tests used:
[1] = Population 2-compartment PK model with oral absorption (BK challenge study); type: in vivo, human; conditions: population PK model parameter estimate (CV %)
Procedure: A PK/PD analysis using the same approach as in the icatibant evaluation was conducted. […] PK was analyzed using a two-compartment body model with first-order oral absorption and a lag time; results are shown in Table 4. For the PK/PD model a simple Emax-model with a direct link was utilized. The PK/PD model was used to simulate PK profiles (N=1000) and calculate probability of durations of effect as well as to visualize effect-time profiles; see FIGS. 4 and 5.

[2] = Ascending dose study 22-50 mg in healthy volunteers, safety and tolerability (Example 4); type: in vivo, human
[3] = target: T1, cynomolgus monkey B2 receptor (Macaca fascicularis, UniProt A0A7N9CWN6); experiment: Antagonist potency in cells expressing cynomolgus monkey B2 receptor; type: cell-based; conditions: read-out: Kb value to antagonize BK activation
T1 sequence (A0A7N9CWN6 1-391): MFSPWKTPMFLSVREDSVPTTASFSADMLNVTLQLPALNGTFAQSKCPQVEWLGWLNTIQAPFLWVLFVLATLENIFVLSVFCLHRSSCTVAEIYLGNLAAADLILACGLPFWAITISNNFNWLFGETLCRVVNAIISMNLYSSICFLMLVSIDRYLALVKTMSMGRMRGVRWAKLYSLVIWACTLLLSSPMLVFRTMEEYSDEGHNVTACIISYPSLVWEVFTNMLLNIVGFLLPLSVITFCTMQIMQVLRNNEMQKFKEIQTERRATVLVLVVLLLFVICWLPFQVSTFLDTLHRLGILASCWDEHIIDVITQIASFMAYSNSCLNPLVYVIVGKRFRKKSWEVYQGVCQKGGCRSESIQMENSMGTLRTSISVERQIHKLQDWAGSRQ
Description: (§1) The bradykinin B2 receptor is well known for its species selective pharmacology (Paquet et al., Br. J. Pharmacol. (126), 1083-1090, 1999 (DOI: 10.1038/sj.bjp.0702403); Burgess et al., Br. J. Pharmacol. (129), 77-86, 2000 (DOI: 10.1038/sj.bjp.0703012)). […] Pharmacol. 11:916; DOI: 10.3389/fphar.2020.00916.

[4] = target: T2, endogenous human B2 receptors (Homo sapiens, UniProt P30411); experiment: Antagonist potency at endogenous human B2 receptors
T2 sequence (P30411 1-391): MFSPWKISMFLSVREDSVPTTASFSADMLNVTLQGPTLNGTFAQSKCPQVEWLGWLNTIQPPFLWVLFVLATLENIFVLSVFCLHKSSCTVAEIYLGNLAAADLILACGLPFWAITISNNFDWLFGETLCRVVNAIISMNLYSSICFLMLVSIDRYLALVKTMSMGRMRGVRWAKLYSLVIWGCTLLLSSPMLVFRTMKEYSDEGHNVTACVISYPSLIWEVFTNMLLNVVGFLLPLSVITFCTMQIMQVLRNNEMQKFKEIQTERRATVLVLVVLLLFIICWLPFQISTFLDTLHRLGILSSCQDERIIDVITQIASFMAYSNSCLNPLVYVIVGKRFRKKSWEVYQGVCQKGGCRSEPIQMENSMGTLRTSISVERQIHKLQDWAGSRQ

CYP3A4 = CYP3A4 (Homo sapiens, UniProt P08684); experiment: In vitro CYP3A4 substrate data; type: in vitro ADME
Chain of CYP3A4 (P08684 whole entry): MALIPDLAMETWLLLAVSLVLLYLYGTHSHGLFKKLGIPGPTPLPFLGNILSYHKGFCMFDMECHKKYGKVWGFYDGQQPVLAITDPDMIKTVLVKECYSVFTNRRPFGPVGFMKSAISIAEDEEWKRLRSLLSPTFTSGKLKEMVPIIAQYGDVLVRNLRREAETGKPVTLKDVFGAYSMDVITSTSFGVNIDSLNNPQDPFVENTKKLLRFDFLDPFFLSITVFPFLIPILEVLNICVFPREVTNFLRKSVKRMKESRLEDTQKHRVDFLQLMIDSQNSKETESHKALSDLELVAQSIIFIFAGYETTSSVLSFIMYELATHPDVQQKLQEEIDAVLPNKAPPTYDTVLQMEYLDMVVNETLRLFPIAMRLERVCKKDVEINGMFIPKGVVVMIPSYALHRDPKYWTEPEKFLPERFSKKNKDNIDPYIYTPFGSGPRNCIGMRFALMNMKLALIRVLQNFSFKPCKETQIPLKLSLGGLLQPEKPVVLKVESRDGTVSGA

BK B2 receptor = target: T3, BK B2 receptor (Homo sapiens, UniProt P30411); experiment: Bradykinin challenge study, PK/PD (Example 3); type: in vivo; conditions: for Time plasma level above EC85 at a 75% confidence level / Time plasma level above EC85 at a 75% confidence level, DBP / Time plasma level above EC85 at a 75% confidence level, MAP: modeling and simulation
T3 sequence (P30411 1-391): T2 sequence (P30411 1-391)
Procedure: The compound (12 and 22 mg) was administered orally (p.o.) to 16 healthy volunteers. BK was injected intravenously prior to oral administration of the compound, i.e. BK predosing challenge, and at 1, 4, 8, 12 and 24 hours after oral administration (dosing) of the 12 and 22 mg single dose, respectively. BK injections were administered to induce cardiovascular responses in the volunteers. The cardiovascular responses were monitored, and blood samples were drawn over 24 hours for PK assessment. The PD outcome variables were measured from 5 min before until 5 min after each BK bolus. A % inhibition-of-the-baseline average-to-peak effect was calculated and used as the PD outcome.
Immediately after BK injection a short-lived change in blood pressure, heart rate and cardiac output can be recorded.
PK was analyzed using a two-compartment body model with first-order oral absorption and a lag time; results are shown in Table 4. For the PK/PD model a simple Emax-model with a direct link was utilized. The PK/PD model was used to simulate PK profiles (N=1000) and calculate probability of durations of effect as well as to visualize effect-time profiles; see FIGS. 4 and 5.

human B2 receptor = target: T4, human B2 receptor (Homo sapiens, UniProt P30411); experiment: Antagonist potency in cells expressing human B2 receptor; type: cell-based
T4 sequence (P30411 1-391): T2 sequence (P30411 1-391)
Description: as §1

clinical = conditions: human, in vivo, po, 12 mg
Procedure: Thirteen healthy subjects were enrolled and completed the study.
On Days 4 to 8, subjects received once daily oral doses of 200 mg itraconazole one hour before start of a standard meal.
Trough plasma concentrations of itraconazole were determined by taking predose plasma samples on Days 4-7, to document exposure to itraconazole.

mouse B2 receptor = target: T5, mouse B2 receptor (Mus musculus, UniProt P32299); experiment: Antagonist potency in cells expressing mouse B2 receptor; type: cell-based; conditions: compared with human B2 receptor
T5 construct: expressed in transfected cells
T5 sequence (P32299 1-392): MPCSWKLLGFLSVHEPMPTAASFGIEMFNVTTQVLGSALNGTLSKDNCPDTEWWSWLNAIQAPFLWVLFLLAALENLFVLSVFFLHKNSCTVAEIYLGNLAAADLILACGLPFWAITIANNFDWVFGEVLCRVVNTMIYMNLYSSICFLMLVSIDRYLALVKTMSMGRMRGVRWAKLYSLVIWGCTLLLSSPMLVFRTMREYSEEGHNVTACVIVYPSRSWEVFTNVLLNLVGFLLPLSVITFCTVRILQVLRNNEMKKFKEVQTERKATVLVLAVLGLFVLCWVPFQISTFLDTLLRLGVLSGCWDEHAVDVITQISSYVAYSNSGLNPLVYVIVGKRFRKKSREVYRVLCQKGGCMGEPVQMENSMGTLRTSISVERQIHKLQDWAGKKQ
Description: as §1

dog B2 receptor = experiment: Antagonist potency in cells expressing dog B2 receptor; type: cell-based; conditions: compared with human B2 receptor
Description: as §1

[5] = plasma concentration, PD in BK challenge

[2H][C@@](C)(NC(=O)COC(F)F)c1cc(F)cc(Cl)c1COc1cccc2c(-c3ncnn3C)cc(C)nc12 [compound of formula (I)]
CL/F apparent clearance [1]: 34.5 (5.9%) L/h
Ka first order absorption rate constant [1]: 7.97 (25.1%) 1/h
Q/F apparent inter-compartmental clearance [1]: 10.7 (15.8%) L/h
Tlag lag time [1]: 0.181 (9.9%) h
V2/F apparent volume for the central compartment [1]: 101 (4.5%) L
V3/F apparent volume for the peripheral compartment [1]: 35.9 (10.7%) L
changes in vital signs, laboratory, or ECG parameters vs placebo ([2]; 22-50 mg single oral doses): no clinically significant changes
serious adverse effects ([2]; 22-50 mg single oral doses): no serious adverse effects reported
safety and tolerability ([2]; doses up to 40 mg under fasting and 50 mg under fed conditions): safe and well tolerated
Kb [3]: 1.42 nM
antagonist potency at endogenous human B2 receptors [4]: 0.35 nM
CYP3A4 substrate (CYP3A4): substrate of CYP3A4
time stayed above EC85 (BK B2 receptor; 12 mg oral dose): 7 h
Time plasma level above EC85 at a 75% confidence level (BK B2 receptor; 12 mg p.o.): 6.5 h
Time plasma level above EC85 at a 75% confidence level, DBP (BK B2 receptor; 12 mg p.o.): 7.5 h
Time plasma level above EC85 at a 75% confidence level, MAP (BK B2 receptor; 12 mg p.o.): 7 h
duration of effect relative to the 12 mg dose (BK B2 receptor; 22 mg oral dose): approximately twice as long
Time plasma level above EC85 at a 75% confidence level (BK B2 receptor; 22 mg p.o.): 9.5 h
Time plasma level above EC85 at a 75% confidence level, DBP (BK B2 receptor; 22 mg p.o.): 10 h
Time plasma level above EC85 at a 75% confidence level, MAP (BK B2 receptor; 22 mg p.o.): 10 h
potency relative to icatibant based on plasma concentrations (BK B2 receptor; BK challenge EC50/EC85): approximately four-fold more potent than icatibant
EC50 (BK B2 receptor; corrected for plasma protein binding 96.2%, read-out: free plasma concentration associated with EC50 of 2.4 ng/ml): 0.17 nM
intrinsic PD potency at the K B2 receptor, fold higher than icatibant (BK B2 receptor; in vivo): about 25 fold
Estimated EC85, Cardiac output (BK B2 receptor; [5]): 0.00952 µg/mL
Estimated EC85, Composite average (BK B2 receptor; [5]): 0.0138 µg/mL
Estimated EC85, Diastolic blood pressure (BK B2 receptor; [5]): 0.01326 µg/mL
Estimated EC85, Heart rate (BK B2 receptor; [5]): 0.0187 µg/mL
EC50 (BK B2 receptor; plasma concentration, PD in BK challenge, read-out: Estimated EC50, Cardiac output (converted)): 3.14 nM
EC50 (BK B2 receptor; plasma concentration, PD in BK challenge, read-out: Estimated EC50, Composite average (converted)): 4.49 nM
EC50 (BK B2 receptor; plasma concentration, PD in BK challenge, read-out: Estimated EC50, Diastolic blood pressure (converted)): 4.37 nM
EC50 (BK B2 receptor; plasma concentration, PD in BK challenge, read-out: Estimated EC50, Heart rate (converted)): 6.17 nM
times more potent at human B2 receptor than icatibant (human B2 receptor): about 20 times
intrinsic agonist activity (human B2 receptor; B2 receptor): devoid of intrinsic agonist activity
Kb (human B2 receptor; human B2 receptor, read-out: Kb value to antagonize BK activation): 0.15 nM
antagonist potency at recombinant human B2 receptors (human B2 receptor; recombinant): 0.15 nM
Tmax (clinical): 0.5 to 1 h
half-life (clinical): 4.31 h
fold less potent towards the mouse B2 receptor (mouse B2 receptor): more than 3000 fold
fold less potent towards the dog B2 receptor (dog B2 receptor): 18,000 fold
